From PubChem BioAssay AID1845204 (Molecular Pharmacology Branch, DTP, NCI, 2023)
Several values for one entry are separate records, joined by “and”; a condition that tells them apart may be missing. Equal entries are not always repeated.

Tested on: HSSY-II tumor spheroid viability
Assay: Anticancer human tumor HSSY-II cell line growth inhibition;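 further: spheroids exposed to compounds for seven days before reading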;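 on viability, T/C: percent of DMSO vehicle control viability so 100% = untreated level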
Conditions: spheroids with HUVEC and MSC; for viability, T/C: stronger effect = lower value
How it was run: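 Complex spheroids of malignant cells with endothelial cells and mesenchymal stem cells; agents alone or combined, from near clinical Cmax (or 10 microM if unknown) down in half-log steps, 0.25% DMSO final.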

[1] = curve of first compound, second compound 30 pM
[2] = curve of first compound, second compound 94.9 pM
[3] = curve of first compound, second compound 0.0003 µM
[4] = curve of first compound, second compound 0.000949 µM
[5] = curve of first compound, second compound 0.003 µM
[6] = second compound 30 pM, first compound 0.0316 µM
[7] = second compound 30 pM, first compound 0.1 µM
[8] = second compound 30 pM, first compound 0.316 µM
[9] = second compound 30 pM, first compound 1 µM
[10] = second compound 30 pM, first compound 3.16 µM
[11] = second compound 30 pM, first compound 10 µM
[12] = second compound 94.9 pM, first compound 0.0316 µM
[13] = second compound 94.9 pM, first compound 0.1 µM
[14] = second compound 94.9 pM, first compound 0.316 µM
[15] = second compound 94.9 pM, first compound 1 µM
[16] = second compound 94.9 pM, first compound 3.16 µM
[17] = second compound 94.9 pM, first compound 10 µM
[18] = second compound 0.0003 µM, first compound 0.0316 µM
[19] = second compound 0.0003 µM, first compound 0.1 µM
[20] = second compound 0.0003 µM, first compound 0.316 µM
[21] = second compound 0.0003 µM, first compound 1 µM
[22] = second compound 0.0003 µM, first compound 3.16 µM
[23] = second compound 0.0003 µM, first compound 10 µM
[24] = second compound 0.000949 µM, first compound 0.0316 µM
[25] = second compound 0.000949 µM, first compound 0.1 µM
[26] = second compound 0.000949 µM, first compound 0.316 µM
[27] = second compound 0.000949 µM, first compound 1 µM
[28] = second compound 0.000949 µM, first compound 3.16 µM
[29] = second compound 0.000949 µM, first compound 10 µM
[30] = second compound 0.003 µM, first compound 0.0316 µM
[31] = second compound 0.003 µM, first compound 0.1 µM
[32] = second compound 0.003 µM, first compound 0.316 µM
[33] = second compound 0.003 µM, first compound 1 µM
[34] = second compound 0.003 µM, first compound 3.16 µM
[35] = second compound 0.003 µM, first compound 10 µM

COc1ccc([C@@H](O)c2cc(-c3ncnc4cc(N5CCOCC5)ccc34)c(F)cc2Cl)nn1 + COc1cc2c(cc1O)CCNC21CSC2c3c(OC(C)=O)c(C)c4c(c3C(COC1=O)N1C(O)C3Cc5cc(C)c(OC)c(O)c5C(C21)N3C)OCO4
IC50 [1]: 1670 nM
IC50 [2]: 686 nM
IC50 [3]: < 31.6 nM
IC50 [4]: < 31.6 nM
IC50 [5]: < 31.6 nM
viability, T/C [6]: 117%
viability, T/C [7]: 114%
viability, T/C [8]: 93.3%
viability, T/C [9]: 67.1%
viability, T/C [10]: 29.7%
viability, T/C [11]: 6.65%
viability, T/C [12]: 101%
viability, T/C [13]: 93.8%
viability, T/C [14]: 75.6%
viability, T/C [15]: 38.6%
viability, T/C [16]: 7.08%
viability, T/C [17]: 1.86%
viability, T/C [18]: 16.7%
viability, T/C [19]: 10.5%
viability, T/C [20]: 7.96%
viability, T/C [21]: 3.36%
viability, T/C [22]: 0.77%
viability, T/C [23]: 0.17%
viability, T/C [24]: 2.36%
viability, T/C [25]: 2.67%
viability, T/C [26]: 0.85%
viability, T/C [27]: 0.08%
viability, T/C [28]: 0.11%
viability, T/C [29]: 0.22%
viability, T/C [30]: 0.22%
viability, T/C [31]: 0.26%
viability, T/C [32]: 0.22%
viability, T/C [33]: 0.24%
viability, T/C [34]: 0.25%
viability, T/C [35]: 0.34%

COc1cc(C)[nH]c(=O)c1CN1CCc2c(Cl)cc(C(OC)C3COC3)c(Cl)c2C1=O (configuration not stated)
viability, T/C (compound 0.0316 µM): 79.4% and 99.8% and 97.9%
viability, T/C (compound 0.1 µM): 115% and 84.8% and 86.5%
viability, T/C (compound 0.316 µM): 99.7% and 76.2% and 78.9%
viability, T/C (compound 1 µM): 93.8% and 63.5% and 68.3%
viability, T/C (compound 3.16 µM): 94.8% and 60.8% and 62.7%
viability, T/C (compound 10 µM): 91.7% and 62.6% and 64.4%
IC50 (curve of compound): > 10000 nM

CC(C)n1c(=O)n(C)c2cnc3cc(F)c(-c4ccc(OCCCN5CCCCC5)nc4)cc3c21 + COc1cc2c(cc1O)CCNC21CSC2c3c(OC(C)=O)c(C)c4c(c3C(COC1=O)N1C(O)C3Cc5cc(C)c(OC)c(O)c5C(C21)N3C)OCO4
IC50 [1]: > 10000 nM
IC50 [2]: 7160 nM
IC50 [3]: < 31.6 nM
IC50 [4]: < 31.6 nM
IC50 [5]: < 31.6 nM
viability, T/C [6]: 128%
viability, T/C [7]: 120%
viability, T/C [8]: 109%
viability, T/C [9]: 114%
viability, T/C [10]: 91.9%
viability, T/C [11]: 71.4%
viability, T/C [12]: 75.3%
viability, T/C [13]: 73.6%
viability, T/C [14]: 70%
viability, T/C [15]: 84.1%
viability, T/C [16]: 73.3%
viability, T/C [17]: 40.2%
viability, T/C [18]: 13.2%
viability, T/C [19]: 13.8%
viability, T/C [20]: 18%
viability, T/C [21]: 17.2%
viability, T/C [22]: 13.9%
viability, T/C [23]: 15.2%
viability, T/C [24]: 3.04%
viability, T/C [25]: 3.45%
viability, T/C [26]: 3.44%
viability, T/C [27]: 5.73%
viability, T/C [28]: 4.91%
viability, T/C [29]: 3.99%
viability, T/C [30]: 0.18%
viability, T/C [31]: 0.2%
viability, T/C [32]: 0.22%
viability, T/C [33]: 0.2%
viability, T/C [34]: 0.2%
viability, T/C [35]: 0.31%
